Calls of active or inactive are those of the source. The calls are words filed in the database; no cut-off is given here.
Key:
[1] = Antiproliferative activity against human GTL16 cells after 72 hrs by tetrazolium-based colorimetric assay; conditions: GTL 16, 72 h
[2] = biological target: Hepatocyte growth factor receptor (Homo sapiens, UniProt P08581); assay: Inhibition of GST-tagged human recombinant c-met N terminal domain expressed in Hi5 insect cells after 60 mins by liquid scintillation counting
[3] = Cmax in mouse at 50 mg/kg, po for 8 hrs; type: ADME, organism-based; parameters: dose 50 mg/kg, route oral; conditions: in vivo
[4] = AUC (0 to 8 hrs) in mouse at 50 mg/kg, po; type: ADME, organism-based; parameters: time < 8 hr, dose 50 mg/kg, route oral; conditions: plasma
GTL 16 [5] = assay: Antitumor activity against human GTL16 cells xenografted in anthymic mouse administered po qd for 15 days; type: functional, organism-based
GTL 16 [6] = assay: Antitumor activity against human GTL16 cells xenografted in anthymic mouse assessed as complete tumor stasis at 25 mg/kg, po qd for 15 days; type: functional, organism-based; parameters: dose 25 mg/kg
[7] = biological target: T1, Receptor-type tyrosine-protein kinase FLT3 (Homo sapiens, UniProt P36888); assay: Inhibition of FLT3
T1 sequence (P36888 whole entry): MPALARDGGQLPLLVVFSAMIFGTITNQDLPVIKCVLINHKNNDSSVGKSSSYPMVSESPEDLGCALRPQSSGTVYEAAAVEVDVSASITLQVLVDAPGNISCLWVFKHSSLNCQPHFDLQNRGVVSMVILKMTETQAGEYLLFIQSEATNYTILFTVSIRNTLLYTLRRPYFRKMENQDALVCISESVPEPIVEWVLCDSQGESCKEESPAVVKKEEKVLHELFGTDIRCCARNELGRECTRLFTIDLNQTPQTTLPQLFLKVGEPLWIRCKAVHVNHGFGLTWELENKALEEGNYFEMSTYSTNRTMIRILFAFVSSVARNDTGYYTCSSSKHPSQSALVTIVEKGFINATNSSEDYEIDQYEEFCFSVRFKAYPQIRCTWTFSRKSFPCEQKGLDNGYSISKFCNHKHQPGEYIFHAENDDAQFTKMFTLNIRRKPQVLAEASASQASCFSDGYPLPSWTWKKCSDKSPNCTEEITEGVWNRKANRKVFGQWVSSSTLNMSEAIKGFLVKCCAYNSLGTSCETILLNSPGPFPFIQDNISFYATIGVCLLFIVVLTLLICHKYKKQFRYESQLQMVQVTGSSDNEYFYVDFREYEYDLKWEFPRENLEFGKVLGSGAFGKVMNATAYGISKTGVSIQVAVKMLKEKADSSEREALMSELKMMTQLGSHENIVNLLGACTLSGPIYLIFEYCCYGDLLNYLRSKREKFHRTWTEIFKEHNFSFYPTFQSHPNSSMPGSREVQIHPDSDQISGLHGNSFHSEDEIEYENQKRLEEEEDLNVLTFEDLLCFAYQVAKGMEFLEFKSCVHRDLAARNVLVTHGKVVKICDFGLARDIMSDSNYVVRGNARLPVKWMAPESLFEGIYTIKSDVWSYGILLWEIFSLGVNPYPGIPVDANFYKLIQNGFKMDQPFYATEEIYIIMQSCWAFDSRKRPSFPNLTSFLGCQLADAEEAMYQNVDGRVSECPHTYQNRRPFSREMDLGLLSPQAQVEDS

[8] = biological target: High affinity nerve growth factor receptor (Homo sapiens, UniProt P04629); assay: Inhibition of TrkA
[9] = biological target: Tyrosine-protein kinase Lck (Homo sapiens, UniProt P06239); assay: Inhibition of LcK
Insulin receptor = Insulin receptor (Homo sapiens, UniProt P06213); assay: Inhibition of InsR
[10] = biological target: MAP kinase-activated protein kinase 2 (Homo sapiens, UniProt P49137); assay: Inhibition of MK2
[11] = Inhibition of CDK2E
[12] = biological target: Protein kinase C alpha type (Homo sapiens, UniProt P17252); assay: Inhibition of PKCalpha

Chain of Tyrosine-protein kinase Lck (P06239 whole entry): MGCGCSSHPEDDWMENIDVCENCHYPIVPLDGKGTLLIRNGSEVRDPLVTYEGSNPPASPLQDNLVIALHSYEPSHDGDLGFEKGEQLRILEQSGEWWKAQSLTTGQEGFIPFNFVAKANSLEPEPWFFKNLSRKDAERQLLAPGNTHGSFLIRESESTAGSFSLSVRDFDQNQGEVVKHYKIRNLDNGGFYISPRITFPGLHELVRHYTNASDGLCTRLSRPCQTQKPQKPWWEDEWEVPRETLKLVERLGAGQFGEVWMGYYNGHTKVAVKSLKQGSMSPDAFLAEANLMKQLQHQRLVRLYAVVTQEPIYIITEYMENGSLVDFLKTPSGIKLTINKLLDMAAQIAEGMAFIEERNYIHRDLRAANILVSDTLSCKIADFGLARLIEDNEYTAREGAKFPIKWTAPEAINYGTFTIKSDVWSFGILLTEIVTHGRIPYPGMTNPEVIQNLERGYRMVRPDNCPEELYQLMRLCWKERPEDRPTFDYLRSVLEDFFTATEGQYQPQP
Chain of High affinity nerve growth factor receptor (P04629 whole entry): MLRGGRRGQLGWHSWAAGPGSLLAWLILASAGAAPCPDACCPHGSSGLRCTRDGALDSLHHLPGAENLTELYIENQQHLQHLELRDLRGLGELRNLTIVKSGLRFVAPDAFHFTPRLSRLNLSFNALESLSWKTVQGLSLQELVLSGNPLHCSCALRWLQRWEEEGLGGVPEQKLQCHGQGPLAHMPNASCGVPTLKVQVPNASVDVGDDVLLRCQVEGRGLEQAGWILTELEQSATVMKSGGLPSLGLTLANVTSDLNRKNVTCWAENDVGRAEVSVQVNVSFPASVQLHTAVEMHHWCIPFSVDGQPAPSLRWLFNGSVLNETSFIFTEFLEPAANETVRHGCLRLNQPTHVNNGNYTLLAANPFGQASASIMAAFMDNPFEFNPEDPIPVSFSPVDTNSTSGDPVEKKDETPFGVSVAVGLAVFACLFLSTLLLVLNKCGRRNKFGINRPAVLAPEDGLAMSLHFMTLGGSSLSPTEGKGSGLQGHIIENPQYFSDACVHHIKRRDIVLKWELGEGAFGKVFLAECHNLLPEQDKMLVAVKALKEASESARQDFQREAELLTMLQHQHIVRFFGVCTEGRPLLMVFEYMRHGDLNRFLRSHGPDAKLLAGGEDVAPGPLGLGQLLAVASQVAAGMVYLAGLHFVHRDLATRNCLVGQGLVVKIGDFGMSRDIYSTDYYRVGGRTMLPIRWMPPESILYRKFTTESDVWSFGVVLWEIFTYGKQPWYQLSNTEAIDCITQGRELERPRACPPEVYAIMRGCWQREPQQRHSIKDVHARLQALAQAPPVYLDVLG
Chain of MAP kinase-activated protein kinase 2 (P49137 whole entry): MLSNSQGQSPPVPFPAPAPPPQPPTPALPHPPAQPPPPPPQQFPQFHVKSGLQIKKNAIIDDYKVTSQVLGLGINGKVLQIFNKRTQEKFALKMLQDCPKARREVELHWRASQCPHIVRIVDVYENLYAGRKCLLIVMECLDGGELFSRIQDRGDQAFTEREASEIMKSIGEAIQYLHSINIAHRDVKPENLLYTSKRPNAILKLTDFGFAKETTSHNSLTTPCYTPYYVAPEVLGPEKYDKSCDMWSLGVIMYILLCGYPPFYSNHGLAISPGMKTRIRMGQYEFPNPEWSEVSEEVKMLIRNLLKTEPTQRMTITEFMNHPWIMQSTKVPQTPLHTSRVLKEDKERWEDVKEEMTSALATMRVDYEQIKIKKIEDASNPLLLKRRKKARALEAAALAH
Chain of Insulin receptor (P06213 28-758 limits assumed): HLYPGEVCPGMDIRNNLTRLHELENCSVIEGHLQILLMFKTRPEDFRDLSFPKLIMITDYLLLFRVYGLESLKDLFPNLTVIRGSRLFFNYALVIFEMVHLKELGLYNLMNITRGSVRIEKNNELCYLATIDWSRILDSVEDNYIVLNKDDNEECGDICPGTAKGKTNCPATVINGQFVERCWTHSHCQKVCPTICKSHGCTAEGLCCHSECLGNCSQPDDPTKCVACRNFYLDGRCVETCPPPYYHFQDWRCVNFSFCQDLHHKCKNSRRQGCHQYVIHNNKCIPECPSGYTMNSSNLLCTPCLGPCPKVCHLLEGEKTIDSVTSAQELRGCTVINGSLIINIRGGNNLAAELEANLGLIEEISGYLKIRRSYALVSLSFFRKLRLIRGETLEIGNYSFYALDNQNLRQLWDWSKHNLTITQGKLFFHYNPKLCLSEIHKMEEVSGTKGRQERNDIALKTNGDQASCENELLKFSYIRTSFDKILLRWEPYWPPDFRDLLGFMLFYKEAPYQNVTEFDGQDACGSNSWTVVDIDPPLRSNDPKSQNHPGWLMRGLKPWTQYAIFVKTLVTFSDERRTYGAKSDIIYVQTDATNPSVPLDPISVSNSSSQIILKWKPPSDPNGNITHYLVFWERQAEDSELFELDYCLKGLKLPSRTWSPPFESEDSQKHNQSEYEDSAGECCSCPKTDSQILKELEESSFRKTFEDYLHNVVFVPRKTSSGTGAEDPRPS
Chain of Insulin receptor (P06213 763-1382 limits assumed): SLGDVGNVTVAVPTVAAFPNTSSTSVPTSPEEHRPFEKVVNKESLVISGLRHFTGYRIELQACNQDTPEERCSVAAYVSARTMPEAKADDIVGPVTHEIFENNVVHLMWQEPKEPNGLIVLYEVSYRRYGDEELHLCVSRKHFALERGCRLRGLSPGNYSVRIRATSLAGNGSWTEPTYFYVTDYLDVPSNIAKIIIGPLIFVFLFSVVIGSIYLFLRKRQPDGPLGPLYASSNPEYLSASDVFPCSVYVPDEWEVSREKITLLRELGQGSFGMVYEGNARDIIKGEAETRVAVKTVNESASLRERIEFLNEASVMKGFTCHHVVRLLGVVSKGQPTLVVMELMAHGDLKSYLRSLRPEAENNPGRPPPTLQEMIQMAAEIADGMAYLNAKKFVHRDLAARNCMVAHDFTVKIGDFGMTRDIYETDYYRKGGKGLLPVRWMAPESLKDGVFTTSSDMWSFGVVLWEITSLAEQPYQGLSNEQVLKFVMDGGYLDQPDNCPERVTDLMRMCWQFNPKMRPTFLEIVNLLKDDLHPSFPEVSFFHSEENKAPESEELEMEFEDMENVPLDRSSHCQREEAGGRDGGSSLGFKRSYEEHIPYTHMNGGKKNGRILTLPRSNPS

| SMILES | IC50 [1] | further results |
| --- | --- | --- |
| CSc1ncc(C(=O)Nc2ccc(F)cc2F)c(Nc2ccc(Oc3ccnc(N)c3)c(F)c2)n1 | 0.44 µM |  |
| Nc1cc(Oc2ccc(Nc3ncccc3C(=O)Nc3ccc(F)cc3F)cc2F)ccn1 | 0.9 µM |  |
| O=C(Nc1ccc(F)cn1)c1cccnc1Nc1ccc(Oc2ccnc3[nH]ccc23)c(F)c1 | 0.27 µM |  |
| CN(C(=O)c1cccnc1Nc1ccc(Oc2ccnc3[nH]ccc23)c(F)c1)c1ccc(F)cc1 | 5.58 µM |  |
| Cc1ccccc1NC(=O)c1cccnc1Nc1ccc(Oc2ccnc3[nH]ccc23)c(F)c1 | 0.42 µM |  |
| O=C(Nc1ccc(F)cc1F)c1nccnc1Nc1ccc(Oc2ccnc3[nH]ccc23)c(F)c1 | 7.15 µM |  |
| CN(C)c1ncc(C(=O)Nc2ccc(F)cc2F)c(Nc2ccc(Oc3ccnc(N)c3)c(F)c2)n1 | > 10 µM |  |
| O=C(Nc1ccccc1CCO)c1cccnc1Nc1ccc(Oc2ccnc3[nH]ccc23)c(F)c1 | 0.4 µM |  |
| Nc1cc(Oc2ccc(Nc3nccnc3C(=O)Nc3ccc(F)cc3F)cc2F)ccn1 | 2.73 µM |  |
| O=C(Nc1ccc(F)cc1F)c1cnccc1Nc1ccc(Oc2ccnc3[nH]ccc23)c(F)c1 | > 10 µM |  |
| Nc1cc(Oc2ccc(Nc3ncc(Br)cc3C(=O)Nc3ccc(F)cc3F)cc2F)ccn1 | 0.59 µM |  |
| O=C(Nc1ccc(F)cc1F)c1cc(Br)cnc1Nc1ccc(Oc2ccnc3[nH]ccc23)c(F)c1 | 0.64 µM |  |
| Nc1cc(Oc2ccc(Nc3ncccc3C(=O)Nc3ccc(Cl)cc3)cc2F)ccn1 | 1.16 µM |  |
| O=C(Nc1ccccc1Cl)c1cccnc1Nc1ccc(Oc2ccnc3[nH]ccc23)c(F)c1 | 1.2 µM |  |
| Cc1ccc(C(=O)Nc2ccc(F)cc2F)c(Nc2ccc(Oc3ccnc4[nH]ccc34)c(F)c2)n1 | 2.4 µM |  |
| Nc1cc(Oc2ccc(Nc3ncncc3C(=O)Nc3ccc(F)cc3F)cc2F)ccn1 | 1.93 µM |  |
| O=C(Nc1ccc(F)cc1F)c1cccnc1Nc1ccc(Oc2ccnc3[nH]ccc23)c(F)c1 | 0.21 µM | IC50 [2]: 0.007 µM; Cmax [3]: 9.3 µM; AUC(0-t) at 8 h [4]: 42 µM·h; Activity (GTL 16 [5]): Dose-dependent effect; Activity (GTL 16 [6]): Active; IC50 [7]: 0.12 µM; IC50 [8]: 0.35 µM; IC50 [9]: > 50 µM; IC50 (Insulin receptor): > 50 µM; IC50 [10]: > 50 µM; IC50 [11]: > 50 µM; IC50 [12]: > 50 µM |
| O=C(Nc1ccccc1)c1cccnc1Nc1ccc(Oc2ccnc3[nH]ccc23)c(F)c1 | 0.46 µM |  |

From ChEMBL document CHEMBL1158562, “Design, synthesis and structure-activity relationships of novel biarylamine-based Met kinase inhibitors” (Bioorg Med Chem Lett, 2010)
